Laboratory results as given in PubChem BioAssay AID1919000 (Molecular Pharmacology Branch, DTP, NCI, 2023).

System: 653999-131-R-J2-PDC complex spheroids, growth % test/control
Experiment: Anticancer human tumor 653999-131-R-J2-PDC patient-derived lung adenocarcinoma cell line growth inhibition [AhR]
Conditions: for IC50: curve of first compound; for viability, T/C: stronger effect = lower value
Procedure, shortened: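 Agents were dosed in half-log steps down from roughly clinical Cmax, or from 10 microM where Cmax was unknown, alone and with AhR antagonists. Read-out: percent test/control growth of tumor spheroids containing HUVEC and MSC stromal cells.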

[1] = second compound 0.1 µM, first compound 0.00316 µM
[2] = second compound 0.1 µM, first compound 0.01 µM
[3] = second compound 0.1 µM, first compound 0.0316 µM
[4] = second compound 0.1 µM, first compound 0.1 µM
[5] = second compound 0.316 µM, first compound 0.00316 µM
[6] = second compound 0.316 µM, first compound 0.01 µM
[7] = second compound 0.316 µM, first compound 0.0316 µM
[8] = second compound 0.316 µM, first compound 0.1 µM
[9] = second compound 1 µM, first compound 0.00316 µM
[10] = second compound 1 µM, first compound 0.01 µM
[11] = second compound 1 µM, first compound 0.0316 µM
[12] = second compound 1 µM, first compound 0.1 µM
[13] = second compound 3.16 µM, first compound 0.00316 µM
[14] = second compound 3.16 µM, first compound 0.01 µM
[15] = second compound 3.16 µM, first compound 0.0316 µM
[16] = second compound 3.16 µM, first compound 0.1 µM
[17] = second compound 10 µM, first compound 0.00316 µM
[18] = second compound 10 µM, first compound 0.01 µM
[19] = second compound 10 µM, first compound 0.0316 µM
[20] = second compound 10 µM, first compound 0.1 µM
[21] = second compound 0.1 µM, first compound 0.316 µM
[22] = second compound 0.1 µM, first compound 1 µM
[23] = second compound 0.1 µM, first compound 3.16 µM
[24] = second compound 0.1 µM, first compound 10 µM
[25] = second compound 0.316 µM, first compound 0.316 µM
[26] = second compound 0.316 µM, first compound 1 µM
[27] = second compound 0.316 µM, first compound 3.16 µM
[28] = second compound 0.316 µM, first compound 10 µM
[29] = second compound 1 µM, first compound 0.316 µM
[30] = second compound 1 µM, first compound 1 µM
[31] = second compound 1 µM, first compound 3.16 µM
[32] = second compound 1 µM, first compound 10 µM
[33] = second compound 3.16 µM, first compound 0.316 µM
[34] = second compound 3.16 µM, first compound 1 µM
[35] = second compound 3.16 µM, first compound 3.16 µM
[36] = second compound 3.16 µM, first compound 10 µM
[37] = second compound 10 µM, first compound 0.316 µM
[38] = second compound 10 µM, first compound 1 µM
[39] = second compound 10 µM, first compound 3.16 µM
[40] = second compound 10 µM, first compound 10 µM
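Note: spheroids exposed to agents for seven days.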
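Throughout, for viability, T/C: 100% = DMSO vehicle control viability.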

Structure (SMILES) | IC50 (second compound 0.1 µM) [µM] | IC50 (second compound 0.316 µM) [µM] | IC50 (second compound 1 µM) [µM] | IC50 (second compound 3.16 µM) [µM] | IC50 (second compound 10 µM) [µM] | viability, T/C [3] [%] | viability, T/C [4] [%] | viability, T/C [7] [%] | viability, T/C [8] [%] | viability, T/C [11] [%] | viability, T/C [12] [%] | viability, T/C [15] [%] | viability, T/C [16] [%] | viability, T/C [19] [%] | viability, T/C [20] [%] | viability, T/C [21] [%] | viability, T/C [22] [%] | viability, T/C [25] [%] | viability, T/C [26] [%] | viability, T/C [29] [%] | other results
CC[C@@]1(O)C(=O)OCc2c1cc1n(c2=O)Cc2cc3c(CN(C)C)c(O)ccc3nc2-1 + Cc1ccccc1N=Nc1ccc(NC(=O)c2ccnn2C)c(C)c1 | 0.0775 | 0.0796 | 0.0682 | 0.0849 | > 0.1 | 63.7 | 45.9 | 63.4 | 46 | 61.6 | 44.2 | 59 | 48.2 | 65.8 | 57.8 | – | – | – | – | – | viability, T/C (second compound 0.1 µM, first compound 0.000316 µM): 111%; viability, T/C (second compound 0.1 µM, first compound 0.001 µM): 104%; viability, T/C [1]: 93.1%; viability, T/C [2]: 87.7%; viability, T/C (second compound 0.316 µM, first compound 0.000316 µM): 95%; viability, T/C (second compound 0.316 µM, first compound 0.001 µM): 108%; viability, T/C [5]: 120%; viability, T/C [6]: 88.3%; viability, T/C (second compound 1 µM, first compound 0.000316 µM): 101%; viability, T/C (second compound 1 µM, first compound 0.001 µM): 122%; viability, T/C [9]: 109%; viability, T/C [10]: 94.5%; viability, T/C (second compound 3.16 µM, first compound 0.000316 µM): 103%; viability, T/C (second compound 3.16 µM, first compound 0.001 µM): 110%; viability, T/C [13]: 109%; viability, T/C [14]: 91.7%; viability, T/C (second compound 10 µM, first compound 0.000316 µM): 117%; viability, T/C (second compound 10 µM, first compound 0.001 µM): 106%; viability, T/C [17]: 101%; viability, T/C [18]: 82.3%
COc1cc(C2c3cc4c(cc3C(OC3OC5COC(C)OC5C(O)C3O)C3COC(=O)C23)OCO4)cc(OC)c1O (stereo not given) + Cc1ccccc1N=Nc1ccc(NC(=O)c2ccnn2C)c(C)c1 | 0.846 | 0.568 | 0.513 | 0.965 | 0.962 | 86 | 76 | 86.2 | 68.6 | 90.2 | 72.6 | 80 | 77.4 | 72.6 | 68.7 | 58.6 | 48.8 | 54 | 47.3 | 53.7 | viability, T/C [23]: 38.1%; viability, T/C [24]: 28.3%; viability, T/C [27]: 34%; viability, T/C [28]: 29.1%; viability, T/C [30]: 42.8%; viability, T/C [31]: 37.7%; viability, T/C [32]: 30.2%; viability, T/C [33]: 62%; viability, T/C [34]: 46.1%; viability, T/C [35]: 42.5%; viability, T/C [36]: 27.7%; viability, T/C [37]: 58%; viability, T/C [38]: 49%; viability, T/C [39]: 41.4%; viability, T/C [40]: 31.8%
Nc1ccn(C2OC(CO)C(O)C2(F)F)c(=O)n1 (stereo not given) + Cc1ccccc1N=Nc1ccc(NC(=O)c2ccnn2C)c(C)c1 | 0.532 | 0.371 | 0.94 | 0.454 | 2.96 | 64.2 | 65 | 70.6 | 60.9 | 69.2 | 66.4 | 72.5 | 62.4 | 66.8 | 65.5 | 49.3 | 44.9 | 52.8 | 39.8 | 60.5 | viability, T/C [23]: 42.9%; viability, T/C [24]: 34.2%; viability, T/C [27]: 43.5%; viability, T/C [28]: 36.8%; viability, T/C [30]: 44.4%; viability, T/C [31]: 43.5%; viability, T/C [32]: 36%; viability, T/C [33]: 51.5%; viability, T/C [34]: 44.9%; viability, T/C [35]: 42.1%; viability, T/C [36]: 38.7%; viability, T/C [37]: 65.2%; viability, T/C [38]: 50.3%; viability, T/C [39]: 46.1%; viability, T/C [40]: 48.5%
Nc1ncn(C2CC(O)C(CO)O2)c(=O)n1 (stereo not given) + Cc1ccccc1N=Nc1ccc(NC(=O)c2ccnn2C)c(C)c1 | > 1 | > 1 | > 1 | > 1 | > 1 | 95.5 | 87.5 | 80.8 | 83.2 | 88 | 93.3 | 88 | 77.8 | 82.7 | 78.6 | 79.9 | 76.9 | 81.1 | 71.7 | 78.9 | viability, T/C [1]: 97.5%; viability, T/C [2]: 99.3%; viability, T/C [5]: 100%; viability, T/C [6]: 93.8%; viability, T/C [9]: 87.5%; viability, T/C [10]: 94.6%; viability, T/C [30]: 78.1%; viability, T/C [13]: 88.6%; viability, T/C [14]: 92.9%; viability, T/C [33]: 84.7%; viability, T/C [34]: 72.7%; viability, T/C [17]: 84.3%; viability, T/C [18]: 78.7%; viability, T/C [37]: 77.5%; viability, T/C [38]: 70.8%
